For orientation: GI50 means the concentration giving 50% growth inhibition. For orientation: TGI means the concentration at which net growth stops.

What all share (test): DTP human tumour cell line panel, 48 h
For experiment [1], the system named is A549 NSCLC.
The subject of experiment [2] is HOP-92 NSCLC.
For experiment [3], the system named is IGROV1 ovarian.
In experiment [4] the test system is K-562 leukemia.
In experiment [5] the test system is PC-3 prostate.
Experiment [6] has as its system SK-MEL-2 melanoma.
For experiment [7], the system named is SK-MEL-28 melanoma.
For experiment [8], the system named is SN12C renal.
The subject of experiment [9] is U251 CNS.
Experiment [10] has as its system UACC-62 melanoma.

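1) Cells in 96-well plates. 2) Compound, 48 h, 5 concentrations. 3) Linear interpolation between surrounding doses. 4) Unreached endpoint = highest concentration. The concentration for 50% growth inhibition is given as GI50. At the TGI there is no net growth.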 Where only a bound is given, the exact number is not on record here.

Turning to `CC(C)(C)[Si](C)(C)OC1[C@@H](CNC(=O)NC(=O)CCl)O[C@@H](n2cnc3c(N)ncnc32)[C@H]1O[Si](C)(C)C(C)(C)C` (stereo not given in full), the GI50 was 2.1 µM in [1]; 0.885 µM in experiment [2]; 0.154 µM in experiment [3]; 1.23 µM in experiment [4]; 0.942 µM in [5]; 1.04 µM in [6]. The GI50 in experiment [7] is 1.4 µM; in experiment [8] it was 0.821 µM; in experiment [9], 0.849 µM; in [10] it was 0.877 µM. Moreover, the TGI in experiment [1] is 7.72 µM; in experiment [2] it was 1.86 µM; in [3], 0.441 µM; in experiment [4], 3.41 µM; in experiment [5], 2.05 µM; in [6], 2.01 µM. For the same molecule, the TGI was 4.12 µM in experiment [7], 1.88 µM in experiment [8], 1.58 µM in experiment [9] and 1.74 µM in experiment [10].
As to `CCNC(=O)/C(=C/c1ccc(OC)cc1)c1cc(OC)c(OC)c(OC)c1`, the concentration for total growth inhibition (TGI) in experiment [1] is greater than 100 µM; in [2], greater than 96.6 µM; in experiment [3], greater than 100 µM; in experiment [4], greater than 100 µM; in experiment [5], greater than 100 µM; in [6] it was greater than 100 µM. The TGI in [7] is greater than 100 µM; in experiment [8] it was greater than 100 µM; in experiment [9], 70 µM; in [10], greater than 100 µM.
As to `N[C@H](CCC(=O)N[C@@H](Cc1c[nH]c2ccccc12)C(=O)O)C(=O)O`, the GI50 in [1], in experiment [2], in experiment [3], in experiment [4], in experiment [5] and in experiment [6] was greater than 100 µM each time. The GI50 in experiment [7], in [8], in [9] and in experiment [10] was greater than 100 µM throughout. Further, the TGI in [1], in experiment [2], in experiment [3], in experiment [4], in experiment [5] and in experiment [6] was greater than 100 µM throughout. The TGI in [7], in experiment [8], in [9] and in experiment [10] was greater than 100 µM throughout.
With `COc1ccc(/C(C)=C(\c2ccc(OCCN3CCCCCC3)cc2)c2ccc(OC(=O)C3CCCCC3)cc2)cc1`, the GI50 in experiment [1] is 1.12 µM; in experiment [2], 0.813 µM; in experiment [3], 1.21 µM; in experiment [4] it was 0.356 µM; in [5], 0.541 µM; in [6] it was 1.87 µM. In addition, the GI50 was 1.25 µM in experiment [7], 1.11 µM in [8], 1.01 µM in experiment [9] and 0.892 µM in experiment [10]. The total growth inhibition concentration (TGI) in experiment [1] was 4.04 µM; in experiment [2], 2.76 µM; in [3], 3.88 µM; in experiment [4], 6.14 µM; in [5] it was 2.38 µM; in [6], 4.19 µM. The TGI was 3.14 µM in [7], 3.28 µM in experiment [8], 3.62 µM in experiment [9] and 2.85 µM in experiment [10].
For the molecule `CCc1ccc2c(c1)C(=O)c1c-2n(CCCN=[N+]=[N-])c(=O)c2cc([N+](=O)[O-])ccc12`, the GI50 in experiment [1], in experiment [2], in experiment [3], in experiment [4], in experiment [5] and in experiment [6] was greater than 50 µM throughout. The GI50 in experiment [7], in experiment [8], in experiment [9] and in [10] was greater than 50 µM in each case. The TGI in [1], in experiment [2], in [3], in experiment [4], in [5] and in experiment [6] was greater than 50 µM in each case. The concentration for total growth inhibition (TGI) in experiment [7], in experiment [8], in experiment [9] and in experiment [10] was greater than 50 µM throughout.
For `O=C(/C(=C\c1c(-c2ccccc2)[nH]c2ccccc12)S(=O)(=O)c1ccccc1)c1ccccc1`, the GI50 in experiment [1] was 35 µM; in experiment [2], 4.95 µM; in experiment [3] it was greater than 100 µM; in experiment [4], 6.53 µM; in [5], 4.96 µM; in experiment [6], greater than 100 µM. Further, the GI50 in [7] was greater than 100 µM; in experiment [8], greater than 100 µM; in experiment [9], 8.64 µM; in [10] it was 8.95 µM. Also, the total growth inhibition concentration (TGI) in [1], in experiment [2], in experiment [3], in [4], in [5] and in experiment [6] was greater than 100 µM throughout. For the same molecule, the TGI in experiment [7], in [8], in experiment [9] and in [10] was greater than 100 µM throughout.
Consider `CCCC(=O)C1=C(O)C(Cc2c(O)c(C)c(O)c(C(=O)CCC)c2O)=C(O)C(C)(C)C1=O`, for which the total growth inhibition concentration (TGI) is greater than 50 µM in experiment [1]; greater than 50 µM in experiment [2]; greater than 50 µM in experiment [3]; 48 µM in experiment [4]; greater than 50 µM in experiment [5]; greater than 50 µM in experiment [6]. Besides, the TGI in experiment [7], in experiment [8], in [9] and in experiment [10] was greater than 50 µM in each case.

The values above are taken from PubChem BioAssay (NCI).
